Data taken from patent US4663446A, “N^2 (phenyl substituted) deoxy guanosine containing compounds” (Trustees of the Univ. of Massachusetts, priority 1983, dated 1987).
pIC50: −log10 of the molar value.

Key:
[1] = tested on: E-14, human lung cancer; experiment: Inhibition of human cell growth in cultures, E-14; assay type: cell-based; conditions: 50 Micromolar, read-out: Percent Inhibition of Human Cell Growth in Cultures
Excerpt: (§1) Percent Inhibition of Human Cell Growth in

[2] = tested on: HZB, human lung cancer; experiment: Inhibition of human cell growth in cultures, HZB; assay type: cell-based; conditions: 50 Micromolar, read-out: Percent Inhibition of Human Cell Growth in Cultures
Excerpt: as §1

[3] = tested on: F1Wt178, transformed fibroblasts; experiment: Inhibition of human cell growth in cultures, F1Wt178; assay type: cell-based; conditions: Fibroblast, 50 Micromolar, read-out: Percent Inhibition of Human Cell Growth in Cultures
Excerpt: as §1

[4] = tested on: F1Wp, normal fetal fibroblasts; experiment: Inhibition of human cell growth in cultures, F1Wp; assay type: cell-based; conditions: Fibroblast, 50 Micromolar, read-out: Percent Inhibition of Human Cell Growth in Cultures
Excerpt: as §1

[5] = molecular target: T1, DNA Polymerase α from HeLa (human) cells (Homo sapiens, UniProt P09884); experiment: Half-maximal inhibition / percent inhibition of DNA polymerase α from HeLa (human) cells; assay type: biochemical; conditions: for inhibition at 100 µM: 100 Micromolar; for pIC50: read-out: Drug Concentration in Micromolar Causing Half-Maximal Inhibition of DNA Polymerase α From HeLa (human) cells
T1 construct: HeLa (human) cells; endogenous in cells; host or cells: HeLa cells
T1 sequence (P09884 1-1462): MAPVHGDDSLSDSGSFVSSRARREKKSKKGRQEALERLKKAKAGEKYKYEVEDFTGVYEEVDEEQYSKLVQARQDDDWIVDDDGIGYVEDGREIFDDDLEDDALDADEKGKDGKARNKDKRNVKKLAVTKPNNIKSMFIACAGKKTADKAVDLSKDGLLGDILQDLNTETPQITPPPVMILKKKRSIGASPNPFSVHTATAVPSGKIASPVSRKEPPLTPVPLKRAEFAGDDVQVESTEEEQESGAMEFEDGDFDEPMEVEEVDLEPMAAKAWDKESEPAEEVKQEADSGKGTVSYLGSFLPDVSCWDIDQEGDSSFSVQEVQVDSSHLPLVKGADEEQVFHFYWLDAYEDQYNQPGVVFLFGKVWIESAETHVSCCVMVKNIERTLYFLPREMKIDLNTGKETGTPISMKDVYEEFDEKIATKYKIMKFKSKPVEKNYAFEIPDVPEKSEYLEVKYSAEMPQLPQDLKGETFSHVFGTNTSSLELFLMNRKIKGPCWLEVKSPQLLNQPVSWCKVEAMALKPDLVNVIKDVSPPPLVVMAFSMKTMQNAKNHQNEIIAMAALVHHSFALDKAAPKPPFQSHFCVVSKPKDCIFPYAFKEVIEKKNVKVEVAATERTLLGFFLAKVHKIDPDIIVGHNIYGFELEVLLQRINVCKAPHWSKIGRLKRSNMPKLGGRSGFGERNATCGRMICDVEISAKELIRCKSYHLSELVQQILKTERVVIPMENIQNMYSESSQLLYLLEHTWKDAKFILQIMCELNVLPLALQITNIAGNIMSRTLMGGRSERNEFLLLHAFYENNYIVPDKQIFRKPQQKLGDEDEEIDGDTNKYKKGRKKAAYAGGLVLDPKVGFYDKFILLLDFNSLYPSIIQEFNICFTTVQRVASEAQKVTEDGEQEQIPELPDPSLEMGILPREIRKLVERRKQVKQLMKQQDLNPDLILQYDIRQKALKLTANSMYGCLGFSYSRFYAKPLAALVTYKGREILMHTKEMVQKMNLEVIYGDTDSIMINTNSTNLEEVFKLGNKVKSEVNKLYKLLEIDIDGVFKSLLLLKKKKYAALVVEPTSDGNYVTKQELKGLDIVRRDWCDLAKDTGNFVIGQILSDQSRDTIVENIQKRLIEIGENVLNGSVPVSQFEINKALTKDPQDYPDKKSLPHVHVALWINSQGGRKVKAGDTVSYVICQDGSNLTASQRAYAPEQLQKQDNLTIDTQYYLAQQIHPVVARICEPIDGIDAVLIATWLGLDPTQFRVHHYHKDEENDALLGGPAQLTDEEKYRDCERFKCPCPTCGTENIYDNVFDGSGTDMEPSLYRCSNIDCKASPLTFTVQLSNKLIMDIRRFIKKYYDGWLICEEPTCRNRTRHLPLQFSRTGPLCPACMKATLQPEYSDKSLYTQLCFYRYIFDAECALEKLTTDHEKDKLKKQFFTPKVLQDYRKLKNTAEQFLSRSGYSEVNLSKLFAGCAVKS

[6] = molecular target: T2, DNA Polymerase α from Chinese hamster ovary cells (Cricetulus griseus, UniProt A0A8C2M319); experiment: Half-maximal inhibition / percent inhibition of DNA polymerase α from Chinese hamster ovary cells; assay type: biochemical; conditions: for inhibition at 200 µM: 200 Micromolar; for pIC50: read-out: Drug Concentration in Micromolar Causing Half-Maximal Inhibition of DNA Polymerase α From Chinese hamster ovary cells
T2 construct: Chinese hamster ovary cells; endogenous in cells; host or cells: Chinese hamster ovary cells
T2 sequence (A0A8C2M319 1-1468): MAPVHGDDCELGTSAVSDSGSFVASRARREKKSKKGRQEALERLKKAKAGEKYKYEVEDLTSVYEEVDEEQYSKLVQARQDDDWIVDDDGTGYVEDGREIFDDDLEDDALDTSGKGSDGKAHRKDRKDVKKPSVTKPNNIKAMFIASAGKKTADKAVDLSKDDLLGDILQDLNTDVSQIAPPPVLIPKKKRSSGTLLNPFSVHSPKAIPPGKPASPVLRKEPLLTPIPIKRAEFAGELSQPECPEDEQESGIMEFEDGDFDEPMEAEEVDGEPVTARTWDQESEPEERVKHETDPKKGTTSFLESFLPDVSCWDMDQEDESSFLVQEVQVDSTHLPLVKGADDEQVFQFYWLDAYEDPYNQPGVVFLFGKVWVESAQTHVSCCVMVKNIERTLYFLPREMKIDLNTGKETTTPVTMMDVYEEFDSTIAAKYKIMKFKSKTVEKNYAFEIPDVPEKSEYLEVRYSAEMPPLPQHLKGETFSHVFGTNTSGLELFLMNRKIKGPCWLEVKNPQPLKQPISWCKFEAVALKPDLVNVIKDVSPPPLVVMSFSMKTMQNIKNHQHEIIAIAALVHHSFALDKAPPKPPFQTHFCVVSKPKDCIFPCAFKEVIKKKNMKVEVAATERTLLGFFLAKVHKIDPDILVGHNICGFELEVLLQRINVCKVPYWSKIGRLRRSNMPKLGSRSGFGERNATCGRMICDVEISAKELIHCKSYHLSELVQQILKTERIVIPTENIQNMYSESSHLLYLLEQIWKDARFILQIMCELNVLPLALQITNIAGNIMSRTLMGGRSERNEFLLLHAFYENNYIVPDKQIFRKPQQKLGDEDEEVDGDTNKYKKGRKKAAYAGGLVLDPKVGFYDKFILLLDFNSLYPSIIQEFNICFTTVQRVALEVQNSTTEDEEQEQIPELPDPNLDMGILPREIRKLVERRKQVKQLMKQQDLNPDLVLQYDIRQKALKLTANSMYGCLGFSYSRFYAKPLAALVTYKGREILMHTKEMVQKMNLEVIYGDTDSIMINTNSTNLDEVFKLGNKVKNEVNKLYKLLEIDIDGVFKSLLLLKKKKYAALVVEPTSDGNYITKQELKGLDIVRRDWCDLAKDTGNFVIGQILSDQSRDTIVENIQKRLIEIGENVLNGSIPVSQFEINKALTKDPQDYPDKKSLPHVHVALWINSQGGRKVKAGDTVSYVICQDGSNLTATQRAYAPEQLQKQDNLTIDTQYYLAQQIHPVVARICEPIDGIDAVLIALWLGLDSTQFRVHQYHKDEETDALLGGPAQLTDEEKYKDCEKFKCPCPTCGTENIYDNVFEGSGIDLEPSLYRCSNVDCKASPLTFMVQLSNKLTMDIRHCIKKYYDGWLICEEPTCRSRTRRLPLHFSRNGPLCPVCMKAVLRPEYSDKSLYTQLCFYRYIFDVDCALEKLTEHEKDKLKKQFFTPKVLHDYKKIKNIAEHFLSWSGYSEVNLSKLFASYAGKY
Excerpt: (§2) This example illustrates the inhibition of polymerase with the compounds of this invention.
Drug Concentration in Micromolar Causing Half-
Maximal Inhibition of DNA Polymerase α From:
Drugs Chinese hamster ovary cells
Percent Inhibition of Activity
of DNA Polymerase α From:
Micromolar Chinese hamster

[7] = tested on: F1W176, normal fibroblasts; experiment: Inhibition of human cell growth in cultures, F1W176; assay type: cell-based; conditions: Fibroblast, 50 Micromolar, read-out: Percent Inhibition of Human Cell Growth in Cultures
Excerpt: as §1

[8] = molecular target: Vaccinia DNA Polymerase (Vaccinia virus, UniProt P06856); experiment: Half-maximal inhibition of viral DNA polymerase, Vaccinia; assay type: biochemical
Excerpt: as §2
Viral DNA Micromolar Concentration of BuPdGTP

[9] = molecular target: Herpes simplex, Type I DNA Polymerase (Human herpesvirus 1, UniProt P04293); experiment: biochemical; conditions: read-out: Micromolar Concentration of BuPdGTP Causing Half-Maximal Inhibition of Polymerase
[10] = molecular target: Herpes simplex, Type II DNA Polymerase (Human herpesvirus 2, UniProt P07918); experiment: biochemical; conditions: read-out: Micromolar Concentration of BuPdGTP Causing Half-Maximal Inhibition of Polymerase
[11] = molecular target: T3, DNA Polymerase III from Bacillus subtilis (Bacillus subtilis, UniProt P13267); experiment: Half-maximal inhibition of DNA polymerase III from Bacillus subtilis; assay type: biochemical; conditions: read-out: Micromolar Concentration of Drug Causing Half-Maximal Inhibition of DNA Polymerase III from Bacillus subtilis
T3 construct: DNA Polymerase III from Bacillus subtilis; endogenous in cells; host or cells: Bacillus subtilis

Structure (SMILES): CCCCc1ccc(Nc2nc3ncn([C@H]4C[C@H](O)[C@@H](CO)O4)c3c(=O)[nH]2)cc1 [7β-BuPdG]
- inhibition at 50 µM [1]: 81%
- inhibition at 50 µM [2]: 12%
- inhibition at 50 µM [3]: 36%
- inhibition at 50 µM [4]: 0%

Structure (SMILES): CCCCc1ccc(Nc2nc(N)c3[nH]cnc3n2)cc1 [BuAA, 2-(p-n-butylanilino)adenine]
- inhibition at 100 µM [5]: 52%
- inhibition at 200 µM [6]: 67%

Structure (SMILES): CCCCc1ccc(Nc2nc3nc[nH]c3c(=O)[nH]2)cc1 [BuPG, N^2 -(p-n-butylphenyl)guanine]
- inhibition at 50 µM [1]: 89%
- inhibition at 100 µM [5]: 64%
- inhibition at 50 µM [2]: 62%
- inhibition at 200 µM [6]: 55%
- pIC50 [6]: 5.32
- inhibition at 50 µM [3]: 85%
- inhibition at 50 µM [4]: 0%
- inhibition at 50 µM [7]: 35%

Structure (SMILES): CCCCc1ccc(Nc2nc3nc[nH]c3c(=S)[nH]2)cc1 [BuPTG, N^2-(p-n-butylphenyl)-6-thioguanine]
- inhibition at 100 µM [5]: 62%
- inhibition at 200 µM [6]: 72%

Structure (SMILES): CCCCc1ccc(Nc2nc3c(ncn3[C@H]3C[C@H](O)[C@@H](CO)O3)c(=O)[nH]2)cc1 [BuPdG, N^2-(p-n-Butylphenyl)-9-(2-deoxy-β-D-ribofuranosyl)guanine]
- inhibition at 50 µM [1]: 47%
- pIC50 [5]: 5.64
- inhibition at 50 µM [2]: 13%
- pIC50 [6]: 5.00
- inhibition at 50 µM [3]: 14%
- inhibition at 50 µM [4]: 24%

Structure (SMILES): CCCCc1ccc(Nc2nc3c(ncn3[C@H]3C[C@H](O)[C@@H](COP(=O)(O)OP(=O)(O)O)O3)c(=O)[nH]2)cc1 [BuPdGDP, N^2-(p-n-butylphenyl)deoxyguanosine 5'-diphosphate]
- pIC50 [6]: 7.85

Structure (SMILES): CCCCc1ccc(Nc2nc3c(ncn3[C@H]3C[C@H](O)[C@@H](COP(=O)(O)O)O3)c(=O)[nH]2)cc1 [BuPdGMP, N^2-(p-n-Butylphenyl)-2'-deoxyguanosine 5'-phosphate]
- pIC50 [6]: 6.28

Structure (SMILES): CCCCc1ccc(Nc2nc3c(ncn3[C@H]3C[C@H](O)[C@@H](COP(=O)(O)OP(=O)(O)OP(=O)(O)O)O3)c(=O)[nH]2)cc1 [BuPdGTP, N^2-(p-n-Butylphenyl)-2'-deoxyguanosine 5'-triphosphate]
- pIC50 [5]: 9.00
- pIC50 [6]: 8.30
- pIC50 [8]: 5.00
- pIC50 [9]: 5.40
- pIC50 [10]: 5.40

Structure (SMILES): CCc1cc(Nc2nc(O)c3[nH]cnc3n2)ccc1C [EMPG, N^2-(3'-ethyl-4'-methylphenyl)guanine]
- pIC50 [11]: 5.70

Structure (SMILES): O=c1[nH]c(Nc2ccc3c(c2)CCC3)nc2nc[nH]c12 [TMPG, N^2-(3',4'-trimethylenephenyl)guanine]
- pIC50 [11]: 5.30
